Experimental data taken from patent US7838513B2, “Anti-cancer therapy comprising an H2-blocker, at least one antiinflammatory agent and a cytotoxic agent” (Tiltan Pharma Ltd., priority 2006, dated 2010).
Entries after “also recorded” stand apart in the source; their conditions may differ.

Experiments:
[1] = tested on: mouse mammary carcinoma (EMT6/CTX); assay: Suppression of subcutaneous EMT6/CTX tumor growth in mice (tumor size); assay type: in vivo, mice of the CB6F1 strain; settings: 28 days from tumor cell inoculation; i.p.; levamisole 12 mg/Kg, cimetidine 20 mg/Kg; vs control
Experimental: In the following exemplary embodiments of the present invention, different pharmaceutical compositions of the invention were tested in vivo for the purpose of suppression of tumor growth in mice. The control group received a vehicle containing only non-active ingredients which was compared to groups which received pharmaceutical compositions comprising different active ingredients as described in detail below. 3.5×10^5 cells of mouse mammary carcinoma (EMT6/CTX) were injected subcutaneously in to 7-8 week-old mice of the CB6F1 strain (a cross between Balbc and C57bl), in the center of their backs. The mice were then marked and divided into groups. Typically, each group consisted of 7 to 8 mice. The tumor size was measured twice a week and plotted in a graph. […] The width measurement was also used as an indication for tumor height, and the 0.52 is a normalizing factor. Mice were injected with a specified pharmaceutical composition, 6 days a week. Injection volume was 0.05 mL per 10 g body weight (25 g mice received 0.125 mL). All injections were performed intraperitoneally. The week was divided into two treatment types, cytotoxic treatment and non-cytotoxic treatment days according to the corresponding composition. […] 98% of final solution volume was measured and 2% solutol (liquid) was added. […] 98% of final solution volume was measured and 2% solutol (liquid) was added. […]

tumor growth [2] = settings: Example 4 of U.S. Patent Application 20030158118; cited from earlier work
tumor growth [3] = settings: Experiments 3 and 4 (FIGS. 3 and 4) in WO03/061566; cited from earlier work

Structure (SMILES) | Effect on tumor growth (tumor size), Example 2, FIG. 2 [1] | Inhibition of tumor growth by Cimetidine by itself (tumor growth [2]) | Effect of cyclophosphamide alone on tumor growth (tumor growth [3])
c1ccc([C@H]2CN3CCSC3=N2)cc1 [levamisole] | neither levamisole (Group 2), nor cimetidine (Group 3), nor their combination (Group 4) had any significant effect on tumor growth; also recorded: neither the H2-blocker (cimetidine) alone, nor levamisole alone demonstrated any significant anti-cancer activity | – | –
CN/C(=N/CCSCc1nc[nH]c1C)NC#N [cimetidine] | neither levamisole (Group 2), nor cimetidine (Group 3), nor their combination (Group 4) had any significant effect on tumor growth; also recorded: did not result in any significant effect on tumor growth; also recorded: neither the H2-blocker (cimetidine) alone, nor levamisole alone demonstrated any significant anti-cancer activity | did not inhibit tumor growth to any significant amount | –
O=P1(N(CCCl)CCCl)NCCCO1 (stereo not shown) [cyclophosphamide] | – | – | very moderate effect
